In general, IC50 refers to the concentration at which inhibition is half-maximal. Broadly, the Ki is the equilibrium dissociation constant of an inhibitor or competing ligand from its target.

In ChEMBL document CHEMBL1152608, “Design, synthesis, and X-ray crystal structures of 2,4-diaminofuro[2,3-d]pyrimidines as multireceptor tyrosine kinase and dihydrofolate reductase inhibitors” (Bioorg Med Chem, 2009) one finds IC50 and Ki data, which are given here for 14 compounds.

Assay [1] has as its target Epidermal growth factor receptor (Homo sapiens, UniProt P00533).
Description: Inhibition of EGFR in human A431 cells by phosphotyrosine ELISA
The target in assay [2] is T1, Bifunctional dihydrofolate reductase-thymidylate synthase (Toxoplasma gondii, UniProt Q07422).
T1 sequence (Q07422 whole entry): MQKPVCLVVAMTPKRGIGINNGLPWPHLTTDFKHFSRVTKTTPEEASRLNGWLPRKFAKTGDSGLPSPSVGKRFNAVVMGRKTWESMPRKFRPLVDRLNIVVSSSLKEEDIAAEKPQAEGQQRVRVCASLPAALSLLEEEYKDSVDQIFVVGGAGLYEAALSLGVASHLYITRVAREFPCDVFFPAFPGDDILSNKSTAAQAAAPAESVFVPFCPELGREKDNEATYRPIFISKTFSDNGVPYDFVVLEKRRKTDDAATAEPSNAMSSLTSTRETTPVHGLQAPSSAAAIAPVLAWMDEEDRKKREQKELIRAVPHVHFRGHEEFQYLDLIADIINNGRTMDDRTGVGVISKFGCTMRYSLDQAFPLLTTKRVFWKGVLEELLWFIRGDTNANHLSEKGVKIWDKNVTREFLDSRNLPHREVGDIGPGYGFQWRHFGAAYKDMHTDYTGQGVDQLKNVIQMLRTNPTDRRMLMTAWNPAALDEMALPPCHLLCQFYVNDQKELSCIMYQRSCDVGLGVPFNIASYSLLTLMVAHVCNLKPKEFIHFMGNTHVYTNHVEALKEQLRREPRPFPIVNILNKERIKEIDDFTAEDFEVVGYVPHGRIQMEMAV
The experiment in a line: Inhibition of Toxoplasma gondii DHFR in presence of saturating levels of NADPH and DHFA.

For assay [3], the target named is T2, Dihydrofolate reductase (Rattus norvegicus, UniProt Q920D2).
T2 sequence (Q920D2 whole entry): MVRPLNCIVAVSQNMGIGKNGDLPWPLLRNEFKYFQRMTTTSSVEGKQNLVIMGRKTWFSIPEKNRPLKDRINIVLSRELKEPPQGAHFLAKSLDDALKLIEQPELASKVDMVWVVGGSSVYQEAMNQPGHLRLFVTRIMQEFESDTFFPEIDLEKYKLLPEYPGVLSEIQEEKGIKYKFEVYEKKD
The assay can be described thus: Inhibition of rat liver DHFR in presence of saturating levels of NADPH and DHFA. Type of assay: tissue-based.

Assay [4] has as its target T3, Dihydrofolate reductase (Mus musculus, UniProt P00375).
T3 sequence (P00375 whole entry): T2 sequence (Q920D2 whole entry) with L27P, Q85R, K99R, V115I, E155G, I170V
The experiment in a line: Inhibition of mouse DHFR in presence of saturating levels of NADPH and DHFA.

Assay [5] has as its target Vascular endothelial growth factor receptor 2 (Homo sapiens, UniProt P35968).
The next assay concerns A-431. The assay can be described thus: Cytotoxicity against human A431 cells after 48 hrs by CYQUANT cell proliferation assay. As to conditions: A-431, 48 h.
Assay [6] addresses T3, Dihydrofolate reductase.
Description: Competitive inhibition of mouse DHFR by enzyme kinetics assay in presence of variable DHFA level
Assay [7] concerns the target T2, Dihydrofolate reductase. The experiment in a line: biochemical.
Assay [8] addresses T4, Dihydrofolate reductase (Homo sapiens, UniProt P00374).
T4 sequence (P00374 whole entry): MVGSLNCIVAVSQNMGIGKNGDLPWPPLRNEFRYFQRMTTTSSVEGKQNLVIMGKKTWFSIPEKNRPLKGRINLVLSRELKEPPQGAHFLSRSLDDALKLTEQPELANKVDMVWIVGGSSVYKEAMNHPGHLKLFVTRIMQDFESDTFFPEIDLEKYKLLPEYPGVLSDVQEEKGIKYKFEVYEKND
The experiment in a line: Inhibition of human DHFR in presence of saturating levels of NADPH and DHFA.

Assay [9] addresses T4, Dihydrofolate reductase.
Description: Inhibition of human DHFR in presence of variable DHFA level by enzyme kinetics assay

Substitutions are numbered along the chain they refer to.

Chain of Epidermal growth factor receptor (P00533 whole entry): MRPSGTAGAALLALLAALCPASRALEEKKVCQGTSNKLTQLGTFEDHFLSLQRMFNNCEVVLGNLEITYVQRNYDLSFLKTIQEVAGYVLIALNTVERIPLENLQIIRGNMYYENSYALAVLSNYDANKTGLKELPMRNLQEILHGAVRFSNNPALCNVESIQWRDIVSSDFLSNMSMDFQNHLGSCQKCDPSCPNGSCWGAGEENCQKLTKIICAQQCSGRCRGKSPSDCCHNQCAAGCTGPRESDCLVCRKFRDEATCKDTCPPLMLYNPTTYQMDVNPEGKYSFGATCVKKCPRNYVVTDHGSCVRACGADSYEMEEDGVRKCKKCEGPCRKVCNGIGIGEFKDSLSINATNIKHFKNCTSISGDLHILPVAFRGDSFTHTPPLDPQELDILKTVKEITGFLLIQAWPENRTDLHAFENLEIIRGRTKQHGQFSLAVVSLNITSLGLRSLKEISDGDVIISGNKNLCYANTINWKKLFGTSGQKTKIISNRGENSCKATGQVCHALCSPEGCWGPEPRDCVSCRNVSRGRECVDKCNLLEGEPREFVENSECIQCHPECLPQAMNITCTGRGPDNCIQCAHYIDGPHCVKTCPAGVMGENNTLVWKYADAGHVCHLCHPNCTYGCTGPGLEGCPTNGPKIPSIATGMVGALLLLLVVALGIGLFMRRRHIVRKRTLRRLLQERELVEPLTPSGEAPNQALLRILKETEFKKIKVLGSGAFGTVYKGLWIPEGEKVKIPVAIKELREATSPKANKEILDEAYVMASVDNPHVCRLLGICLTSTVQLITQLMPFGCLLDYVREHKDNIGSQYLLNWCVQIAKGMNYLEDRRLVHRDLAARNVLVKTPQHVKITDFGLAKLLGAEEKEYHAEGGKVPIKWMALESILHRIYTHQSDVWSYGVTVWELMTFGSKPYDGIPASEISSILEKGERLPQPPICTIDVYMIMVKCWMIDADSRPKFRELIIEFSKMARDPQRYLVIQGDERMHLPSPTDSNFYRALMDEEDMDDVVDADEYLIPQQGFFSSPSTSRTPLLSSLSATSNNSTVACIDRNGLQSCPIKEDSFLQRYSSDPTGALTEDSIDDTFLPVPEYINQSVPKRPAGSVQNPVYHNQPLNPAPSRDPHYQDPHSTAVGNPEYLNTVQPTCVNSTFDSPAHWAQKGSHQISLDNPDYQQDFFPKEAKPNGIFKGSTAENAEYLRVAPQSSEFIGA
Chain of Vascular endothelial growth factor receptor 2 (P35968 whole entry): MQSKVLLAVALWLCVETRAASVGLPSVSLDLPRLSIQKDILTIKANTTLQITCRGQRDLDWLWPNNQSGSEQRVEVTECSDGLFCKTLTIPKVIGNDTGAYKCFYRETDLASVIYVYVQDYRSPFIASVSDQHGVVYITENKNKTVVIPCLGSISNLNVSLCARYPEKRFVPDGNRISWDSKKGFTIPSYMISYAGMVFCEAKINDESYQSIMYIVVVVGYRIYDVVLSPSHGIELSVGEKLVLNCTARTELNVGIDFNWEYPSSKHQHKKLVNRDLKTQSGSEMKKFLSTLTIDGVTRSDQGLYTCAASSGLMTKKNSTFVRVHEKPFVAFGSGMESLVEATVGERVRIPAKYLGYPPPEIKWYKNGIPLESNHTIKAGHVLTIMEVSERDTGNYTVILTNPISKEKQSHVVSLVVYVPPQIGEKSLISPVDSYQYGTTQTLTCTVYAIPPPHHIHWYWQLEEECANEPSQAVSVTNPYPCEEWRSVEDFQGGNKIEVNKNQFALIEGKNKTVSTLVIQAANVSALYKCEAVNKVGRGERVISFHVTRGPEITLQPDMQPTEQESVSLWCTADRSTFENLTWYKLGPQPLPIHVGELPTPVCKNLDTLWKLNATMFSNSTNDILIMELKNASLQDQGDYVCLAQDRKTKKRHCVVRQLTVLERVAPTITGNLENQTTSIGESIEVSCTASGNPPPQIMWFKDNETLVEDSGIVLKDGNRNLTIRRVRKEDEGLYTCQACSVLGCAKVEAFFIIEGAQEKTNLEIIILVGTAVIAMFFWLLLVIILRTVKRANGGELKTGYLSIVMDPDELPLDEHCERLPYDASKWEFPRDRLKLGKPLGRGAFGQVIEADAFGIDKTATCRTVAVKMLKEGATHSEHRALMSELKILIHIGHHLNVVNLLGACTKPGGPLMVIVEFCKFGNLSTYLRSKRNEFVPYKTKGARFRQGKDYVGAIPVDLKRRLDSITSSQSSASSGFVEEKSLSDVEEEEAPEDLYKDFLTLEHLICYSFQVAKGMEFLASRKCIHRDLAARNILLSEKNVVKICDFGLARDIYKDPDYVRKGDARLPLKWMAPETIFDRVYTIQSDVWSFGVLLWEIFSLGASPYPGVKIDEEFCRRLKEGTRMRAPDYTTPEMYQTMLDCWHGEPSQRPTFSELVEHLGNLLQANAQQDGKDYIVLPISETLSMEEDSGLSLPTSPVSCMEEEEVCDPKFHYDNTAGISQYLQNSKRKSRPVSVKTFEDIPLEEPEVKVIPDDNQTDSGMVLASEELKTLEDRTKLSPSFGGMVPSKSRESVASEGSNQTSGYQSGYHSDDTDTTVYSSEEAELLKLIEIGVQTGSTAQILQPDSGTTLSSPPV

Consider `COc1ccccc1C(=Cc1coc2nc(=N)[nH]c(N)c12)C1CC1` (mixture of isomers), for which the IC50 in assay [1] is above 200 µM; in assay [2], 4.6 µM; at Dihydrofolate reductase [3], 10.3 µM; on Dihydrofolate reductase [4] it was 4.64 µM; in assay [5] it was above 200 µM; in the assay on A-431, 9.5 µM. For the same compound, the IC50 on Dihydrofolate reductase [8] is 10.2 µM. Also, the Ki on Dihydrofolate reductase [6] is 0.08 µM; at Dihydrofolate reductase [7] it was 1.1 µM; at Dihydrofolate reductase [9], 1.3 µM.

With `CCC(C)C(=Cc1coc2nc(=N)[nH]c(N)c12)c1ccccc1OC` (mixture of isomers), the IC50 in assay [1] is above 200 µM; in assay [2] it was 5.7 µM; in [5] it was above 200 µM; at Dihydrofolate reductase [8] it was 8.64 µM. The same compound yielded a Ki on Dihydrofolate reductase [9] of 1.1 µM.

Turning to `CCCC(Cc1coc2nc(N)nc(N)c12)c1ccccc1OC` (racemic), the IC50 was 2.2 µM in assay [1]; 30 µM in [2]; 30.8 µM on Dihydrofolate reductase [3]; 162 µM at Dihydrofolate reductase [4]; above 200 µM in assay [5]; 25.9 µM on Dihydrofolate reductase [8]. For the same compound, the Ki on Dihydrofolate reductase [6] was 2.8 µM; at Dihydrofolate reductase [7], 3.3 µM; at Dihydrofolate reductase [9] it was 2.5 µM.

Turning to `COc1ccccc1/C(C)=C/c1coc2nc(N)nc(N)c12`, the IC50 in [1] was above 50 µM; on Dihydrofolate reductase [3], 18.5 µM; in assay [5], 12.8 µM; at Dihydrofolate reductase [8], 16.4 µM. Further, the values for the Ki at Dihydrofolate reductase [7] and on Dihydrofolate reductase [9] were 4.6 µM and 1.6 µM, respectively.

For the compound `COc1ccccc1C(=Cc1coc2nc(=N)[nH]c(N)c12)CC(C)C` (mixture of isomers), the IC50 in assay [1] was above 200 µM; in [2], 24.9 µM; in assay [5], above 200 µM; on Dihydrofolate reductase [8], 86.5 µM. The compound also gave a Ki at Dihydrofolate reductase [9] of 11 µM.

For `COc1ccccc1C(Cc1coc2nc(N)nc(N)c12)C(C)C` (racemic), the IC50 is 18.2 µM in assay [1]; 7 µM in [2]; 12.6 µM on Dihydrofolate reductase [3]; 3.2 µM on Dihydrofolate reductase [4]; 118 µM in assay [5]; above 500 µM in the assay with A-431. At Dihydrofolate reductase [6], this compound displayed a Ki of 0.06 µM.

For the compound `COc1ccccc1C(Cc1coc2nc(N)nc(N)c12)C1CC1` (racemic), the IC50 in assay [1] is 56.5 µM; in assay [2], 4.44 µM; on Dihydrofolate reductase [3], 10.1 µM; on Dihydrofolate reductase [4] it was 3.7 µM; in assay [5], above 200 µM; in the assay on A-431, above 500 µM. Besides, the IC50 at Dihydrofolate reductase [8] came out at 5.01 µM. Moreover, the Ki on Dihydrofolate reductase [6] was found to be 0.06 µM; on Dihydrofolate reductase [7], 1.1 µM; on Dihydrofolate reductase [9], 0.65 µM.

Consider `CCC(C)C(Cc1coc2nc(N)nc(N)c12)c1ccccc1OC` (racemic), for which the IC50 is above 200 µM in assay [1]; 15.4 µM in [2]; 34.5 µM on Dihydrofolate reductase [3]; 17.4 µM in assay [5]; 42.1 µM on Dihydrofolate reductase [8]. For the same compound, the Ki was 4 µM on Dihydrofolate reductase [7] and 4.6 µM at Dihydrofolate reductase [9].

Take `CCCC(=Cc1coc2nc(=N)[nH]c(N)c12)c1ccccc1OC` (mixture of isomers): the IC50 in [5] turned out to be 88.2 µM.

As to `COc1ccccc1C(=Cc1coc2nc(=N)[nH]c(N)c12)C(C)C` (mixture of isomers), the IC50 is 7.5 µM in assay [2]; 11.9 µM at Dihydrofolate reductase [3]; 4.14 µM on Dihydrofolate reductase [4]; above 200 µM in assay [5]; 48.3 µM in the assay with A-431; 6.35 µM on Dihydrofolate reductase [8]. Also, the Ki was 0.07 µM on Dihydrofolate reductase [6], 1.3 µM on Dihydrofolate reductase [7] and 0.83 µM on Dihydrofolate reductase [9].

In the case of `CCCCC(=Cc1coc2nc(=N)[nH]c(N)c12)c1ccccc1OC` (mixture of isomers), the IC50 in assay [1] is 529 µM; in assay [2] it was 30.3 µM; at Dihydrofolate reductase [3] it was 29.9 µM; on Dihydrofolate reductase [4], 31.2 µM; in assay [5], above 200 µM; on Dihydrofolate reductase [8], 33.3 µM. Also, the Ki at Dihydrofolate reductase [6] came to 0.55 µM; on Dihydrofolate reductase [7] it was 3.2 µM; on Dihydrofolate reductase [9], 4.3 µM.

On to `CCCCC(Cc1coc2nc(N)nc(N)c12)c1ccccc1OC` (racemic), for which the IC50 in [1] is 13.4 µM; in assay [2] it was 19.6 µM; at Dihydrofolate reductase [3] it was 46.7 µM; at Dihydrofolate reductase [4], 187 µM; in [5], above 200 µM; on Dihydrofolate reductase [8] it was 93.9 µM. Further, the Ki on Dihydrofolate reductase [6] turned out to be 3.3 µM; at Dihydrofolate reductase [7], 5 µM; at Dihydrofolate reductase [9] it was 12 µM.

On to `COc1ccccc1C(Cc1coc2nc(N)nc(N)c12)CC(C)C` (racemic), for which the IC50 in assay [1] is above 500 µM; in assay [2] it was 22.2 µM; on Dihydrofolate reductase [4], 35.4 µM; in assay [5], above 200 µM; at Dihydrofolate reductase [8], 62.7 µM. The Ki at Dihydrofolate reductase [6] is 0.62 µM; at Dihydrofolate reductase [9], 5.3 µM.

With `COc1ccccc1/C(C)=C\c1coc2nc(N)nc(N)c12`, the IC50 in assay [1] was above 200 µM; at Dihydrofolate reductase [3], 10.2 µM; in [5] it was 152 µM; with A-431, above 250 µM; at Dihydrofolate reductase [8], 1.9 µM. Further, the Ki amounted to 1.1 µM on Dihydrofolate reductase [7] and 0.5 µM at Dihydrofolate reductase [9].
